In data set [1] the test system is Mus musculus. In words: Antinociceptive activity in capsaicin-induced nociception pain Kunming mouse model assessed as reduction in time spent in paw licking at 60 mg/kg, po pretreated for 30 mins followed by capsaicin challenge measured for 5 mins post capsaicin challenge. Type of data set: functional, organism-based.
For the next data set, the system named is K562. In words: Antiproliferative activity against human K562 cells after 48 hrs by MTT assay. Type of data set: functional, cell-based. The conditions noted are these: K562, 48 h.
A further data set deals with MCF7. In words: Antiproliferative activity against human MCF7 cells after 48 hrs by MTT assay. Type of data set: functional, cell-based. Particulars: MCF7, 48 h.
A further data set has as its system HeLa. In words: Antiproliferative activity against human HeLa cells after 48 hrs by MTT assay. It is filed as functional, cell-based.
Data set [2] deals with Mus musculus. Description: Antinociceptive activity in Kunming mouse model assessed as inhibition of acetic acid-induced writhes at 60 mg/kg, po pretreated for 30 mins followed by acetic acid challenge measured for 15 mins post acetic acid challenge. Type of data set: functional, organism-based.
Data set [3] deals with Transient receptor potential cation channel subfamily V member 1 (Homo sapiens) (UniProt Q8NER1). In words: Agonist activity at human TRPV1 expressed in HEK293 cells assessed as increase in calcium influx by measuring ratio of 340/380 nm excitatory wavelength at 10 uM treated for 2 mins by Fura-2AM dye-based fluorescence assay. It is filed as cell-based.
Sequence of Transient receptor potential cation channel subfamily V member 1 (Homo sapiens) (Q8NER1 whole entry): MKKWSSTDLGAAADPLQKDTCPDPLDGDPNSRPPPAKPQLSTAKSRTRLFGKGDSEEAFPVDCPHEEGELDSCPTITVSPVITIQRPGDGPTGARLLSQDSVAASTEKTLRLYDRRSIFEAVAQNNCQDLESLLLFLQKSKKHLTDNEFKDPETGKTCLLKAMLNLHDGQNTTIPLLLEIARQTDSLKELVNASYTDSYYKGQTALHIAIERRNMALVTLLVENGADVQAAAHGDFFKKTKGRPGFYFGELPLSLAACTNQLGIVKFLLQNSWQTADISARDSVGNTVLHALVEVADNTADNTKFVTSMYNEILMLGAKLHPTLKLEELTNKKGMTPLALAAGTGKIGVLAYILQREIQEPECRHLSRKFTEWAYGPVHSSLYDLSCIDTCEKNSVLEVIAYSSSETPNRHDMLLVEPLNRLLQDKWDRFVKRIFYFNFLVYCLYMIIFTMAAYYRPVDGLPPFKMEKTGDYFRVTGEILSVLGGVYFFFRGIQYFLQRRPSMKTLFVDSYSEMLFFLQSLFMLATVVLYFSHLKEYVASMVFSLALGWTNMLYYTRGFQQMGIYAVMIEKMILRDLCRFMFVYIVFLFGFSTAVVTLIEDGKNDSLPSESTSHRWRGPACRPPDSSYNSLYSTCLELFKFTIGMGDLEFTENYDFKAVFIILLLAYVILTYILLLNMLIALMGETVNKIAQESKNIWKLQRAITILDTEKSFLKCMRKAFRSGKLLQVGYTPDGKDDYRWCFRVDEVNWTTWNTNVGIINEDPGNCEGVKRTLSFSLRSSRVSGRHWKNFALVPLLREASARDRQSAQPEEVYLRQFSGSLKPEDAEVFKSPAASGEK
Data set [4] relates to Mus musculus. In words: Ulcerogenic activity in Kunming mouse assessed as lesion in stomach at 30 mg/kg, po qd for 6 days measured on day 7 by microscopic analysis. It is filed as toxicity, organism-based. Particulars: in vivo, 144 h.
Data set [5] has as its system Mus musculus. Description: Antinociceptive activity in Kunming mouse model of thermal-induced nociception assessed as increase in latency to tail withdrawal at 60 mg/kg, po by tail flick test. It is filed as functional, organism-based.
The nature of data set [6]: Acute toxicity in po dosed CD rat measured for 7 days. The conditions noted are these: in vivo. Type of data set: organism-based.

Activity calls are given as the source filed them. The calls are words filed in the database; no cut-off is given here.

For `COc1cc(CNC(=O)CCCCCCC(C)C)ccc1OCCCCOc1ccc(C(N)=S)cc1`, the result with Mus musculus [1] was Active. For the same compound, the IC50 was over 50 µM in the data set with K562, 4.99 µM with MCF7 and 40.7 µM in the data set with HeLa. For the same compound, in the data set on Mus musculus [2], the inhibition entry was “Active”. For the same compound, the Ratio in [3] came to 1.59.
As for `COc1cc(CNC(=O)CCCC/C=C/C(C)C)ccc1OCCCCCOc1ccc(-c2cc(=S)ss2)cc1`, the result with Mus musculus [1] was Active. The IC50 with K562, in the data set with MCF7 and with HeLa was over 50 µM in each case. For the same compound, in the data set on Mus musculus [2], the inhibition result is “Active”. Besides, the Ratio in [3] was 1.71.
For `COc1cc(CNC(=O)CCCC/C=C/C(C)C)ccc1OCCCCOc1ccc(C(N)=S)cc1`, the result in the data set on Mus musculus [1] was Active. For the same compound, the concentration for half-maximal inhibition (IC50) in the data set on K562 was over 50 µM; in the data set on MCF7, 49.8 µM; with HeLa it was over 50 µM. In the data set on Mus musculus [2], the inhibition result is “Active”. For the same compound, in data set [3], the Ratio came to 1.7.
In the case of `COc1cc(CNC(=O)CCCCCCC(C)C)ccc1OCCCCCOc1ccc(-c2cc(=S)ss2)cc1`, in the data set with Mus musculus [1], the result was Active. Also, the half-maximal inhibitory concentration (IC50) with K562 was over 50 µM; in the data set with MCF7, 48.6 µM; in the data set with HeLa it was over 50 µM. Besides, the inhibition result in the data set on Mus musculus [2] is “Active”. The Ratio in [3] turned out to be 1.69.
For `COc1cc(CNC(=O)CCCCCCC(C)C)ccc1O` [DIHYDROCAPSAICIN], the IC50 in the data set with K562, with MCF7 and with HeLa was over 50 µM throughout. In [3], the Ratio stood at 2.
Take `COc1cc(CNC(=O)CCCC/C=C/C(C)C)ccc1OC(=O)CCC(=O)Oc1ccc(C(N)=S)cc1`: the result in the data set on Mus musculus [1] was Active. In addition, the IC50 in the data set with K562, in the data set with MCF7 and in the data set on HeLa was over 50 µM throughout. In the data set with Mus musculus [2], the inhibition result is “Active”. Moreover, in [3], the Ratio turned out to be 1.94. Besides, the Activity result in the data set on Mus musculus [4] was “Non-Toxic”.
For `COc1cc(CNC(=O)CCCCCCC(C)C)ccc1OC(=O)CCC(=O)Oc1ccc(C(N)=S)cc1`, the outcome in the data set on Mus musculus [1] was Active. The compound further displayed an IC50 in the data set with HeLa of over 50 µM. Also, the inhibition result with Mus musculus [2] was “Active”. Moreover, in data set [3], the Ratio was determined as 1.87.
For `COc1cc(CNC(=O)CCCC/C=C/C(C)C)ccc1OCCCCOc1ccc(-c2cc(=S)ss2)cc1`, the outcome in the data set on Mus musculus [1] and with Mus musculus [5] was Active. The values for the IC50 in the data set on K562, with MCF7 and with HeLa were over 50 µM, 36.4 µM and 47.1 µM, respectively. For the same compound, in the data set on Mus musculus [2], the inhibition result is “Active”. Moreover, in data set [3], the Ratio was found to be 1.96. Besides, the Activity entry with Mus musculus [4] is “Non-Toxic”.
With `COc1cc(CNC(=O)CCCCCCC(C)C)ccc1OC(=O)CCC(=O)Oc1ccc(-c2cc(=S)ss2)cc1`, in the data set on Mus musculus [1], the result was Active. The results for the IC50 with K562, in the data set on MCF7 and in the data set on HeLa were 5.93 µM, 2.56 µM and 5.53 µM, respectively. Besides, the inhibition result with Mus musculus [2] is “Active”. Also, the Ratio in [3] is 1.96.
On to `COc1cc(CNC(=O)CCCC/C=C/C(C)C)ccc1OC(=O)CCC(=O)Oc1ccc(-c2cc(=S)ss2)cc1`, for which the outcome with Mus musculus [1] and with Mus musculus [5] was Active. Moreover, the IC50 with K562 came to 4.45 µM; in the data set with MCF7, 2.12 µM; in the data set with HeLa, 4.25 µM. Further, in the data set with Mus musculus [2], the inhibition entry is “Active”. Moreover, in data set [3], the Ratio is 2.1. The Activity entry with Mus musculus [4] is “Non-Toxic”.
For the compound `COc1cccc2c1C(=O)c1c(O)c3c(c(O)c1C2=O)C[C@@](O)(C(=O)CO)C[C@@H]3O[C@H]1C[C@H](N)[C@H](O)[C@H](C)O1` [DOXORUBICIN], the IC50 with K562 turned out to be 1.51 µM; with HeLa, 0.451 µM.
Consider `COc1cc(CNC(=O)CCCC/C=C/C(C)C)ccc1OCCCCCOc1ccc(C(N)=S)cc1`, for which, in the data set on Mus musculus [1], the result was Active. The IC50 in the data set with K562 is over 50 µM; with MCF7 it was 17.2 µM; with HeLa, 46.4 µM. In addition, the inhibition result in the data set with Mus musculus [2] was “Active”. Further, in data set [3], the Ratio came to 1.87.
Take `COc1cc(CNC(=O)CCCCCCC(C)C)ccc1OCCCCOc1ccc(-c2cc(=S)ss2)cc1`: in the data set with Mus musculus [1], the result was Active. Moreover, the IC50 in the data set with K562 was over 50 µM; with MCF7, 49.5 µM; in the data set on HeLa, 44.6 µM. Further, in the data set with Mus musculus [2], the inhibition result was “Active”. For the same compound, the Ratio in [3] is 1.69.
`COc1cc(CNC(=O)CCCCCCC(C)C)ccc1OC(=O)c1ccc(C(N)=S)cc1`: in the data set with Mus musculus [1], the result was Active. In addition, the IC50 in the data set with K562, in the data set on MCF7 and with HeLa was over 50 µM throughout. The inhibition result with Mus musculus [2] was “Active”. Moreover, the Ratio in data set [3] was 1.69.
As to `COc1cc(CNC(=O)CCCCCCC(C)C)ccc1OCCCCCOc1ccc(C(N)=S)cc1`, the result in the data set with Mus musculus [1] was Active. Further, the IC50 is over 50 µM with K562, 49.3 µM with MCF7 and over 50 µM in the data set on HeLa. Besides, in the data set with Mus musculus [2], the inhibition entry was “Active”. Also, in data set [3], the Ratio stood at 1.76.
`COc1cc(CNC(=O)CCCC/C=C/C(C)C)ccc1O` [CAPSAICIN]: the IC50 was 49.4 µM in the data set with K562, 50 µM in the data set with MCF7 and over 50 µM with HeLa. The LD50 at 168 h in data set [6] stood at 161 mg/kg. The Activity result in the data set on Mus musculus [4] was “Toxic”.
`CC(C)(C)c1ccc(NC(=O)N2CCN(c3ncccc3Cl)CC2)cc1`: in the data set on Mus musculus [5], the result was Active.
As to `COc1cc(CNC(=O)CCCC/C=C/C(C)C)ccc1OC(=O)c1ccc(C(N)=S)cc1`, the result in the data set with Mus musculus [1] was Active. The IC50 is over 50 µM with K562, 39.4 µM with MCF7 and 39.6 µM in the data set with HeLa. Moreover, the inhibition result with Mus musculus [2] is “Active”. Further, the Ratio in [3] was 1.77. Besides, in the data set with Mus musculus [4], the Activity entry is “Non-Toxic”.

These data come from ChEMBL document CHEMBL4118141, “Design, synthesis and biological evaluation of novel hydrogen sulfide releasing capsaicin derivatives” (Bioorg Med Chem, 2018).
